How the values were obtained:
[1] = target: T1, Bromodomain testis-specific protein (Homo sapiens, UniProt Q58F21); test: Binding affinity to human BRDT bromodomain 1 assessed as dissociation constant by BROMOscan method
[2] = target: SWI/SNF-related matrix-associated actin-dependent regulator of chromatin subfamily A member 2 (Homo sapiens, UniProt P51531); test: Binding affinity to human SMARCA2 bromodomain assessed as residual activity at 300 nM by BROMOscan method relative to control
SK-BR-3 = test: Antiproliferative activity against human SK-BR-3 cells expressing ATAD2 assessed as inhibition of colony formation at 0.01 to 10 uM measured after 14 to 21 days by AlamarBlue staining based colony formation assay; assay type: functional, cell-based; conditions: dose 0.01-10 µM, time 14-21 day
[3] = target: Bromodomain-containing protein 9 (Homo sapiens) (UniProt Q9H8M2); test: Binding affinity to human BRD9 bromodomain assessed as residual activity at 300 nM by BROMOscan method relative to control
[4] = target: T2, ATPase family AAA domain-containing protein 2 (Homo sapiens, UniProt Q6PL18); test: Displacement of Halo-tagged Histone H3.3 from Nanoluc-ATAD2 BD (962 to 1119 residues) (unknown origin) transfected in human HCT116 cells incubated for 18 hrs in presence of efflux inhibitor verapamil by NanoBRET assay; assay type: cell-based, HCT-116
T2 sequence (Q6PL18 whole entry): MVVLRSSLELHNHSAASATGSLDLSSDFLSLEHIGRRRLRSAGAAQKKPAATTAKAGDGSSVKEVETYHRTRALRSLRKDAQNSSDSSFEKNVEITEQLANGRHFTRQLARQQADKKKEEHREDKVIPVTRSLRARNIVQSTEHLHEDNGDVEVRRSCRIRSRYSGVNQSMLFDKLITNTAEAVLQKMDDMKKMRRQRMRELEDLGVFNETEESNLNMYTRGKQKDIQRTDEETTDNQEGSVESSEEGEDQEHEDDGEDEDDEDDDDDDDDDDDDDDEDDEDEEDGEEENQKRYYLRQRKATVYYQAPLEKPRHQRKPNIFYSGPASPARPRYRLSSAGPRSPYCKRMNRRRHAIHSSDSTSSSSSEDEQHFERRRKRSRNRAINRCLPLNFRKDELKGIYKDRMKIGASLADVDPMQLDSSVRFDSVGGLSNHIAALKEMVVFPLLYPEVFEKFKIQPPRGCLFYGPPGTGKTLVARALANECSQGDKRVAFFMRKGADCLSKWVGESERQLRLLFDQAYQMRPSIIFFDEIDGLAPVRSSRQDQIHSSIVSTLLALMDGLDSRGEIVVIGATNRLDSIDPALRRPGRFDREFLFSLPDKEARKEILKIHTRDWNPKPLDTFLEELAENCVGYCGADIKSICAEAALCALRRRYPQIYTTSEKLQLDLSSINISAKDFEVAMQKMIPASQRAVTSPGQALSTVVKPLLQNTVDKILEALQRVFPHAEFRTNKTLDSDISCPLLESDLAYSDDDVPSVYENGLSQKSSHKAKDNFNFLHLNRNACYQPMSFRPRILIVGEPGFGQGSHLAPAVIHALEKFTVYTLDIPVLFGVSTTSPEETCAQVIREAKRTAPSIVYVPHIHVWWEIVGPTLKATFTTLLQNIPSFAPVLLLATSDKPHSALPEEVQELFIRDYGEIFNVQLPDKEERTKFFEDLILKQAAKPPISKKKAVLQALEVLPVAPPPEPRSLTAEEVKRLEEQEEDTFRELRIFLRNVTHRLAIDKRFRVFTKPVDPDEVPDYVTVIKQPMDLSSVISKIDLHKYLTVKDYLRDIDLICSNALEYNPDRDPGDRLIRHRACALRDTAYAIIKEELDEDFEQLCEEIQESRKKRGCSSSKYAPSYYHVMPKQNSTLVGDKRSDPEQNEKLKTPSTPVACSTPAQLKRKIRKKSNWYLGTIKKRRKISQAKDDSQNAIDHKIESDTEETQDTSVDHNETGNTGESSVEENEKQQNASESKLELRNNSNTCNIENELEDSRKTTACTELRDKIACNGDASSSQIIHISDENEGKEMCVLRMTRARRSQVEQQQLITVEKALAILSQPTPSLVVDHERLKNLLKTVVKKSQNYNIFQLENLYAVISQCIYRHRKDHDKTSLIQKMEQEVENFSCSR

[5] = target: Histone acetyltransferase KAT2A (Homo sapiens) (UniProt Q92830); test: Binding affinity to human GCN5L2 bromodomain assessed as residual activity at 300 nM by BROMOscan method relative to control
[6] = target: Bromodomain-containing protein 3 (Homo sapiens, UniProt Q15059); test: Binding affinity to human BRD3 bromodomain 2 assessed as residual activity at 300 nM by BROMOscan method relative to control
[7] = target: T1, Bromodomain testis-specific protein; test: Binding affinity to human BRDT bromodomain 2 assessed as residual activity at 300 nM by BROMOscan method relative to control
[8] = target: Nucleosome-remodeling factor subunit BPTF (Homo sapiens, UniProt Q12830); test: Binding affinity to human FALZ bromodomain by BROMOscan method
[9] = target: Histone acetyltransferase KAT2B (Homo sapiens, UniProt Q92831); test: Binding affinity to human PCAF bromodomain assessed as dissociation constant by BROMOscan method
[10] = target: T3, Bromodomain and WD repeat-containing protein 1 (Homo sapiens, UniProt Q9NSI6); test: Binding affinity to human WDR9 bromodomain 2 assessed as residual activity at 300 nM by BROMOscan method relative to control
T3 sequence (Q9NSI6 whole entry): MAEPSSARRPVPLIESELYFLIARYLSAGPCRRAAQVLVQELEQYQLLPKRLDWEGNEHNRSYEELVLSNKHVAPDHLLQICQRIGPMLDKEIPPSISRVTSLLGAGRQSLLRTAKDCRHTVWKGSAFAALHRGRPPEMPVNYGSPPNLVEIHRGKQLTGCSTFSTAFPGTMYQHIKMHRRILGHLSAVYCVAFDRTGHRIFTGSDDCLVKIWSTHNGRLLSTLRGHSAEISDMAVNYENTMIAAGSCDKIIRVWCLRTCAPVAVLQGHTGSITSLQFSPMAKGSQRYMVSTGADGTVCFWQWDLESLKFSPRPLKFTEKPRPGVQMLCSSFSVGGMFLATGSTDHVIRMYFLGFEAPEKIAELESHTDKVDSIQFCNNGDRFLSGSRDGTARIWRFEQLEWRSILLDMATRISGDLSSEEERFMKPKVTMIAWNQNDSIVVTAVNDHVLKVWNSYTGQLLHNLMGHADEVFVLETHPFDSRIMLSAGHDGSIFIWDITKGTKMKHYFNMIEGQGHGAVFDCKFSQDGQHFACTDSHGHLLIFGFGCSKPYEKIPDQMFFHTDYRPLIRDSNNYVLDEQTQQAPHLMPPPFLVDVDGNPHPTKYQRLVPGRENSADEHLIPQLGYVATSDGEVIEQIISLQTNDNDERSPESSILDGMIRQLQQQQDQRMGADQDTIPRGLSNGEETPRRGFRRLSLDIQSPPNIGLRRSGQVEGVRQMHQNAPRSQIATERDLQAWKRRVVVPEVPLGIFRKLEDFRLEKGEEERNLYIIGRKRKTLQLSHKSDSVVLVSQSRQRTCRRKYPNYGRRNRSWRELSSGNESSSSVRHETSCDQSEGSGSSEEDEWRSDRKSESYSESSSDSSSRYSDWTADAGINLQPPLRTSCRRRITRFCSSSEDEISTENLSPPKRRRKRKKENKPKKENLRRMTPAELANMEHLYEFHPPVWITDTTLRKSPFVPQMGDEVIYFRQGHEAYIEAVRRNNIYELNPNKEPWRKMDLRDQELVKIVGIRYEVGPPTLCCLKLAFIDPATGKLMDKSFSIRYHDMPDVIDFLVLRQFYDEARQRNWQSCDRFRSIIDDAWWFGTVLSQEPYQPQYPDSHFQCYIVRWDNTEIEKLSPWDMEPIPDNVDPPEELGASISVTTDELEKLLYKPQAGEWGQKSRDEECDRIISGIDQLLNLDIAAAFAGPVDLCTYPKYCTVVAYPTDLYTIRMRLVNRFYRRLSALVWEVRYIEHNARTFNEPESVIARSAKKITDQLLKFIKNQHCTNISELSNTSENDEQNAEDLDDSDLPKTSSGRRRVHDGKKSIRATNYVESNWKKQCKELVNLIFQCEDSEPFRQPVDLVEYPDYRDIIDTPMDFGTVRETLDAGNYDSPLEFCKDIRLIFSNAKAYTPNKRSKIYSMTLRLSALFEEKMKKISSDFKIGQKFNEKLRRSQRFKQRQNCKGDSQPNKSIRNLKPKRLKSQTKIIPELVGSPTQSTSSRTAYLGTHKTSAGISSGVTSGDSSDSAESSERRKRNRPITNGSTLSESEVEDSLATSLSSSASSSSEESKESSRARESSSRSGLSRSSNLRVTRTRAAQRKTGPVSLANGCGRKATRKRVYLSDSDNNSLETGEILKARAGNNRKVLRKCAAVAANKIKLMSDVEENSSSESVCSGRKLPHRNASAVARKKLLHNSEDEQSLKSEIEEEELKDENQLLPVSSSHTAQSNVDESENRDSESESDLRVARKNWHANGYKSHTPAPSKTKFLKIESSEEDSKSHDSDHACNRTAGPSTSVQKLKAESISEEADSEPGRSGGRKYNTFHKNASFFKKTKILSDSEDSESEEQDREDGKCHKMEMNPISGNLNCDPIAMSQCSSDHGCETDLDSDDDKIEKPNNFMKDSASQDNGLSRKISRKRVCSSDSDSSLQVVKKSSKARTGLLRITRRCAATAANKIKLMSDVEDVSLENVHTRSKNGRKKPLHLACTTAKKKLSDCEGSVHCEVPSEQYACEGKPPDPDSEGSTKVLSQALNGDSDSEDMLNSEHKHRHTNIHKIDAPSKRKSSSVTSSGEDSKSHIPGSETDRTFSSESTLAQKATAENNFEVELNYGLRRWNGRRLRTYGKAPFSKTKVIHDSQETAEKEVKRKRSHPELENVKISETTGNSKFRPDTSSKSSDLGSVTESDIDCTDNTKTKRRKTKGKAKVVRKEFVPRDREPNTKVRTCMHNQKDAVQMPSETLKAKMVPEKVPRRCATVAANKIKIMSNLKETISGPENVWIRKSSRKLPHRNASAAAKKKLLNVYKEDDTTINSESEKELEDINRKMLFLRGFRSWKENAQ

[11] = target: T1, Bromodomain testis-specific protein; test: Binding affinity to human BRDT bromodomain 1 assessed as residual activity at 300 nM by BROMOscan method relative to control
[12] = Distribution coefficient, logD of compound at pH 7.4; assay type: physicochemical; conditions: octanol/water
[13] = target: T4, Bromodomain-containing protein 2 (Homo sapiens, UniProt P25440); test: Binding affinity to human BRD2 bromodomain 1 assessed as residual activity at 300 nM by BROMOscan method relative to control
T4 sequence (P25440 whole entry, looked up): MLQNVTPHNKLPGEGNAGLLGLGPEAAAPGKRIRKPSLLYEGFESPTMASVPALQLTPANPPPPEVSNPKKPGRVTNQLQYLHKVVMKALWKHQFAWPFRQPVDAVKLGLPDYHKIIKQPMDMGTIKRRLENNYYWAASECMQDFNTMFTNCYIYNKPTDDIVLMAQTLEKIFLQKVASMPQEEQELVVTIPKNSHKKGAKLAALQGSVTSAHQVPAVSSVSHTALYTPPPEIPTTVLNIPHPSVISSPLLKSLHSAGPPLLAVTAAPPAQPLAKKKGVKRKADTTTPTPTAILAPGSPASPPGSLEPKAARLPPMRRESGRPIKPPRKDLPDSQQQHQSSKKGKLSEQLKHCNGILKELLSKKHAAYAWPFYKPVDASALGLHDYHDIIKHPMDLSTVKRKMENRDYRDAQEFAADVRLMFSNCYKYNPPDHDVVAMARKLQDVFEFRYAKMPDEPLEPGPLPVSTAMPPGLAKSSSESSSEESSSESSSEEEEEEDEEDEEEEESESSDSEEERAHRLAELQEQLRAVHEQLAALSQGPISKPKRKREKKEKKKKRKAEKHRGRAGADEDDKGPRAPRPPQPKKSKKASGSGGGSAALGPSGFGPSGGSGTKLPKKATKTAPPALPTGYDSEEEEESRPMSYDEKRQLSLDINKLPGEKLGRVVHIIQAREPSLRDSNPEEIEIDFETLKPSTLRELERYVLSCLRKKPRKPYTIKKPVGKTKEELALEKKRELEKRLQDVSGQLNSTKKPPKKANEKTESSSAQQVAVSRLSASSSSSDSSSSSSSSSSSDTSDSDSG

[14] = target: Chromatin remodeling regulator CECR2 (Homo sapiens, UniProt Q9BXF3); test: Binding affinity to human CECR2 bromodomain assessed as dissociation constant by BROMOscan method
Protein polybromo-1 = Protein polybromo-1 (Homo sapiens, UniProt Q86U86); test: Binding affinity to human PBRM1 bromodomain 2 assessed as residual activity at 300 nM by BROMOscan method relative to control
[15] = target: Bromodomain-containing protein 9 (Homo sapiens, UniProt Q9H8M2); test: Binding affinity to human BRD9 bromodomain by BROMOscan method
Homo sapiens = species on record: Homo sapiens; test: Selectivity ratio of IC50 for Inhibition of […] GST-ATAD2 BD (981 to 1108 residues) (unknown origin) expressed in Escherichia coli BL21 (DE3) to IC50 for Halo-tagged Histone H3.3 from Nanoluc-ATAD2 BD ([…] residues) (unknown origin) transfected in human HCT116 cells
[16] = target: T4, Bromodomain-containing protein 2; test: Binding affinity to human BRD2 bromodomain 2 assessed as residual activity at 300 nM by BROMOscan method relative to control
[17] = target: T3, Bromodomain and WD repeat-containing protein 1; test: Binding affinity to human WDR9 bromodomain 2 assessed as dissociation constant by BROMOscan method

Sequence of SWI/SNF-related matrix-associated actin-dependent regulator of chromatin subfamily A member 2 (P51531 whole entry): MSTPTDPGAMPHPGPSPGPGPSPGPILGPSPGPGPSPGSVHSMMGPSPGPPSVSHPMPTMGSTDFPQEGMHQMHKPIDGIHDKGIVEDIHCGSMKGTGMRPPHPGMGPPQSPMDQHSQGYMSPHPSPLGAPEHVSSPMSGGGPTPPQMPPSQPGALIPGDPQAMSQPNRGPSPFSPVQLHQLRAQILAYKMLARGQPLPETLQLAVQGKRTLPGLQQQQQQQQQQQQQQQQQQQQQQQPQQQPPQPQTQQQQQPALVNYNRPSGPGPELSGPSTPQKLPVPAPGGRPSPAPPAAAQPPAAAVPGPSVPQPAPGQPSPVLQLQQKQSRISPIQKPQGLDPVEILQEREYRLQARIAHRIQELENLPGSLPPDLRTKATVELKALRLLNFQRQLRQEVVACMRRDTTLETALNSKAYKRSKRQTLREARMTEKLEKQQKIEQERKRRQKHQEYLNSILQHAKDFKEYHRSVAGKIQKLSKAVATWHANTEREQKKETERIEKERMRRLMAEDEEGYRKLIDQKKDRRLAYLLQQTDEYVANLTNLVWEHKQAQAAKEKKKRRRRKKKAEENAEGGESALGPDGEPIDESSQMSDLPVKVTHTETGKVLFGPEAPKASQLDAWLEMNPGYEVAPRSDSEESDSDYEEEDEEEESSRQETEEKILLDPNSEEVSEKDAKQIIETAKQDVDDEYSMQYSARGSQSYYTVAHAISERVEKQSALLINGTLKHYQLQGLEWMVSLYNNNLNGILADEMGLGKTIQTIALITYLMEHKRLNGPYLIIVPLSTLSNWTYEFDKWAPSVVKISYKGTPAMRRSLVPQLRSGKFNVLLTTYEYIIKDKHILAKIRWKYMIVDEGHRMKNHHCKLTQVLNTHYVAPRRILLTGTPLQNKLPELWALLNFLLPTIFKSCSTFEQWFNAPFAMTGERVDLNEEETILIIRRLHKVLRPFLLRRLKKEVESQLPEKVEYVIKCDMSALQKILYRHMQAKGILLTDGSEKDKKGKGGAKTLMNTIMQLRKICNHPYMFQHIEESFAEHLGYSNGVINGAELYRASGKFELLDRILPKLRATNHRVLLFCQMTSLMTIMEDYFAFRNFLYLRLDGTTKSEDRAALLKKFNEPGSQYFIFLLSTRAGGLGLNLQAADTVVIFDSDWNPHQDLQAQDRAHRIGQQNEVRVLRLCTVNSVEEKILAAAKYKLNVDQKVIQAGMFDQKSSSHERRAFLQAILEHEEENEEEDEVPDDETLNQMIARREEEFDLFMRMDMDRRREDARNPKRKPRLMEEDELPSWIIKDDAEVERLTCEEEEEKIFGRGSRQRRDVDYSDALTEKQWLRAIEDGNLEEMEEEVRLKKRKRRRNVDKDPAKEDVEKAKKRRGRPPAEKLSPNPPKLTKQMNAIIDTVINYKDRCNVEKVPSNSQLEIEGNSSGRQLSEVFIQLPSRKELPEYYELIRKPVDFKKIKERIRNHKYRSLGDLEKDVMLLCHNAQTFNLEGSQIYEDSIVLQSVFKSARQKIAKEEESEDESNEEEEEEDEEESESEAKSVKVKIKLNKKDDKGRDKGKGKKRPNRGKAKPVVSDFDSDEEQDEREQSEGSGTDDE

Cc1nnc2c(NC3CCN(CC(C)(C)F)CC3)cc(C(=O)N3[C@@H]4c5ccccc5C[C@H]3C(=O)N[C@@H]4C(C)C)nn12
Kd [1]: 0.2 µM
Activity [2]: 36%
Activity (SK-BR-3): Dose-Dependent Effect
Activity [3]: 64%
IC50 [4]: 0.0501 µM
Activity [5]: 73%
Activity [6]: 56%
Activity [7]: 71%
Kd [8]: > 0.316 µM
Kd [9]: > 0.316 µM
Activity [10]: 53%
Activity [11]: 48%
logD [12]: 3
Activity [13]: 47%
Kd [14]: > 0.316 µM
Activity (Protein polybromo-1): 80%
Kd [15]: > 0.316 µM
Ratio IC50 (Homo sapiens): 20
Activity [16]: 31%
Kd [17]: > 0.316 µM
